“Also recorded” adds a separate entry of the source. Where two headings read alike, the source gives them in different places.
Key:
TLR2 [1] = molecular target: T1, TLR2 (Homo sapiens, UniProt O60603); assay: In cyto Europium TRF competition binding assay; design: SU.86.86 pancreatic cells with endogenous expression of TLR2 were used for the assay; host or cells: SU.86.86 pancreatic adenocarcinoma cells; conditions: competition with 90 nM Eu-labeled compound 11, SU.86.86 cells, 1 h 37° C.; read-out: TLR2 Binding Affinity (Ki)
Method: Europium Time-Resolved Fluorescence (TRF) binding assays were performed as described in Handle et al. with slight modifications using SU.86.86 cells plated in 96-well black plates with white opaque wells (PerkinElmer) (Handl et al., Lanthanide-based time-resolved fluorescence of in cyto ligand-receptor interactions. Anal Biochem 2004, 330(2):242-50; Handl et al., Development of a lanthanide-based assay for detection of receptor-ligand interactions at the delta-opioid receptor. Anal Biochem 2005, 343(2):299-307; Josan et al., Solid-phase synthetic strategy and bioevaluation of a labeled delta-opioid receptor ligand Dmt-Tic-Lys for in vivo imaging. Org Lett 2009, 11(12):2479-82). Cells were grown in the 96-well plates for 2 days reaching approximately 80% confluency. Competition binding assays were performed to test the TLR2 binding specificity of the test ligand using SU.86.86 cells. On the day of the experiment, the cell culture media was aspirated and 50 μL of nonlabeled test ligand was added in a series of decreasing concentrations (1 μM to 0.01 nM) followed by 50 μL of the competing Eu-labeled ligand 11 (Huynh et al., Novel Toll-like Receptor 2 Ligands for Targeted Pancreatic Cancer Imaging and Immunotherapy. J Med Chem 2012) at a fixed concentration of 90 nM. Cells were incubated with labeled and unlabeled ligands for 1 h at 37° C. Following incubation, cells were washed three times to remove unbound ligand. Next, 100 μL of DELFIA Enhancement Solution (PerkinElmer) was added to each well. Cells were incubated for 30 min at 37° C. prior to reading. The plates were read on PerkinElmer VICTOR X4 Multilabel reader using the standard Europium TRF protocol. To determine the mean statistical analysis was performed using GraphPad Prism software. Binding of the monoacyl TLR2 ligand (compound 14 of Table 2) was tested using the (Eu)DTPA chelate version of the diacyl TLR2 ligand (compound 11 used in Huynh et al, Id.) in a time-resolved fluorescence competition binding assay. SU.86.86 pancreatic cells with endogenous expression of TLR2 were used for the assay.
Target sequence in this assay (O60603 21-784): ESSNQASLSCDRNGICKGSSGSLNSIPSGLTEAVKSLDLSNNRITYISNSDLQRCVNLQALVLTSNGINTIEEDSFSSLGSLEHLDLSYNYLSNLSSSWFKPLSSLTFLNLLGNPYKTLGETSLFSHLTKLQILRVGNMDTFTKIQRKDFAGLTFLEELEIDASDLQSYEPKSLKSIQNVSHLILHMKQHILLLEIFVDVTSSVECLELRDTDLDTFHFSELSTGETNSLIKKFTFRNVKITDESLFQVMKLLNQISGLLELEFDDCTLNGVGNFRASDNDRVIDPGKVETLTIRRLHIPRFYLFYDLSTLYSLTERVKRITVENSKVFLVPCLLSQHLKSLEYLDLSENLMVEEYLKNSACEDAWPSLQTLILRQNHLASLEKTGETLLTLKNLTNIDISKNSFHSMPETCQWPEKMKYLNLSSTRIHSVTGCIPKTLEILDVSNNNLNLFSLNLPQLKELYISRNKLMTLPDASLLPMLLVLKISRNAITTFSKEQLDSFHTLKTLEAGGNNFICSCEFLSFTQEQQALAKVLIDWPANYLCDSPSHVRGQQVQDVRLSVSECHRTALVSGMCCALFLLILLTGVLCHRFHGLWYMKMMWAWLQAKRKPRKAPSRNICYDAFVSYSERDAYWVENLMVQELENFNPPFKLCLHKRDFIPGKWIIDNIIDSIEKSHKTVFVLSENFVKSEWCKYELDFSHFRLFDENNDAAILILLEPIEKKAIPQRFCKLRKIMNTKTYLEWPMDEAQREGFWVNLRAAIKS

TLR2 [2] = molecular target: T1, TLR2; conditions: Huynh et al.; read-out: binding affinity (Ki); cited from earlier work
Target sequence in this assay (O60603 21-784, species assumed): as the sequence (O60603 21-784) above

[3] = test system: TLR2 expressing human pancreatic tumor xenografts (SU.86.86 cells); assay: In vivo TLR2 selectivity (blocking) fluorescence imaging; design: species or system nude mice
Method: Female athymic nude mice 6-8 weeks old (Harlan) bearing human pancreatic tumor xenografts of SU.86.86 cells on the right flank were used. Mouse weights and tumor volumes were determined using caliper measurements and the formula: volume (mm3)=(length×width^2)/2. Images were acquired when the tumors reached an average size of 500 mm^3. For the blocked group, a co-injection of 100 nmol/kg of the fluorescently labeled Compound 16 plus 2 μmol/kg Pam2CSK4 (a 20-fold excess) was administered via tail vein injection; for the unblocked group, 100 nmol/kg Compound 16 was administered. Fluorescence images were acquired at time 0 and 24 h using the Caliper Xenogen IVIS200 system (PerkinElmer) with the 710-760 nm excitation and 810-875 nm emission filter set. The fluorescence was quantified using Living Image software, in which the quantified signals were corrected for both instrument and mouse background subtractions. The quantified fluorescence was then plotted using GraphPad Prism software and underwent statistical analysis using Student's t-test.

TLR2 [4] = molecular target: T1, TLR2; assay: In vitro TLR2 functional bioassay (NF-κB luciferase reporter); format: cell-based; conditions: HEK-293/hTLR2 cells; for agonist activity compared to TLR2 agonist controls (Pam2CSK4, Pam3CSK4, HKLM): all at 1 μg/mL
Method: The in vitro TLR2 functional bioassay was developed and optimized for use in high-throughput screening of soluble compound libraries to identify both TLR2 agonists and antagonists. The bioassay measures the induction of NF-κB signaling via TLR2 in HEK-293/hTLR2 cells (Invivogen) and parental HEK-293 cells as a negative control. Cells were seeded at a density of 40,000 per well using a WellMate microplate dispenser (Thermo Fisher Scientific/Matrix) in black 96-well plates with opaque white wells (PerkinElmer, Waltham, Mass.) and then incubated at 37° C. On day 2, the cells were transiently transfected with pNifty-Luc(InvivoGen, San Diego, Calif.), an NF-κB inducible reporter plasmid expressing the luciferase reporter gene (Schindler et al., Three NF-kappa B binding sites in the human E-selectin gene required for maximal tumor necrosis factor alpha-induced expression. Mol Cell Biol 1994, 14(9):5820-31) using an optimized 4:1 ratio by volume of FugeneHD transfection reagent (Promega, Madison, Wis.) to pNifty-Luc plasmid DNA (1 μg/mL). On day 3, the cells were stimulated with either test peptides or controls adjusted to a final concentration of 1 μg/mL using a NanoDrop spectrophotometer, ND1000 (Thermo Fisher Scientific). Synthetic di- and triacylated LP ligands, Pam2CSK4 and Pam3CSK4 (InvivoGen), were used as positive controls. TNF-α (InvivoGen) was also used as a transfection control that induces NF-κB independently of TLR2. On day 4 after 24 h of peptide stimulation, luciferase induced activity by the induction of NF-κB was measured. The medium was aspirated from the wells using an ELx405 SelectCW plate washer (BioTek, Winooski, Vt.), and 150 μg/mL D-luciferin (Gold Biotechnology, St. Louis, Mo.) was dispensed using the microplate dispensor. The plates were incubated at 37° C. for 5 min. The luminescence intensity was measured using the standard luminescence protocol on a Victor X4 multilabel plate reader equipped with a plate stacker for readout of multiple plates at a time (PerkinElmer, Waltham, Mass.). For each in vitro TLR2 bioassay, at least three different experiments were performed in triplicate (n≥3). Data were analyzed with GraphPad Prism software, and curves were generated with the appropriate nonlinear fit regression analysis.
Target sequence in this assay (O60603 21-784): as above

SU.86.86 cells = assay: Cytotoxicity assay (Dojindo CCK8 Kit); format: cell-based, human; conditions: 24 hours, 21 to 2690 nM
Method: SU.86.86 were treated with Compound 16 for 24 hours over a range of concentrations (40 to 512 ng/mL corresponding to 21 to 2690 nM). Pam2CSK4 was added to SU.86.86 for 24 hours over the same range of concentrations (40 to 512 ng/mL). Three different experiments were performed in triplicate (n≥3). Data were analyzed with GraphPad Prism software.

Molecule: CCCCCCCCCCCCCCCC(=O)OC[C@H](CSC[C@H](NC(=O)COCC(=O)NCCCOCCOCCOCCCNC(C)=O)C(=O)NCC(=O)N[C@H](CO)C(=O)NCCCOCCOCCOCCCNC(=O)COCC(N)=O)OC(=O)CCCCCCCCCCCCCCC [compound 10, reference compound]
- Ki (TLR2 [1]): 91 nM
- Ki (TLR2 [2]): 24 nM

Molecule: CCCCCCCCCCCCCCCC(=O)OCCSC[C@H](NC(=O)COCC(=O)NCCCOCCOCCOCCCNC(=O)c1ccc(C2=C(/C=C/C3=[N+](CCC)c4ccccc4C3(C)C)CCC/C2=C\C=C2\N(CCC)c3ccccc3C2(C)C)cc1)C(=O)NCC(=O)N[C@H](CO)C(=O)NCCCOCCOCCOCCCNC(=O)COCC(N)=O [Compound 16, IR780-Pego-Cys(S-[palmitoyloxyethyl])-Gly-DSer-PEGO-NH2]
- Ki (TLR2 [1]): 16 nM
- mean tumor fluorescence, unblocked tumor/blocked tumor ([3]; 100 nmol/kg i.v., blocked with 2 μmol/kg Pam2CSK4 (20-fold excess), 24 h): 2.67 fold
- tumor fluorescence in blocked versus unblocked group ([3]; 100 nmol/kg i.v., blocked with 2 μmol/kg Pam2CSK4, 24 h post-injection): significant reduction in the ex vivo fluorescence signal; also recorded: significant reduction in the tumor fluorescence
- tumor fluorescence signal by in vivo imaging ([3]; 24 h post-injection): retention of fluorescence signal in the tumor
- IC50 (TLR2 [4]; 0.001 ng/mL to 10 μg/mL, read-out: IC50, inhibition of TLR2 agonistic activity of Pam2CSK4): 361 nM
- agonist activity compared to TLR2 agonist controls (Pam2CSK4, Pam3CSK4, HKLM) (TLR2 [4]): significant decrease in agonist response
- agonist activity compared to TLR2 agonist controls (Pam2CSK4, Pam3CSK4, HKLM) (TLR2 [4]; listed as compound 16): complete loss in agonist activity

Molecule: CCCCCCCCCCCCCCCC(=O)OCCSC[C@H](NC(=O)COCC(=O)NCCCOCCOCCOCCCNC(C)=O)C(=O)NCC(=O)N[C@H](CO)C(=O)NCCCOCCOCCOCCCNC(=O)COCC(N)=O [Compound 14, Ac-Pego-Cys(S-[palmitoyloxyethyl])-Gly-DSer-PEGO-NH2]
- Ki (TLR2 [1]): 22 nM
- EC50 (TLR2 [4]; 0.001 ng/mL to 10 μg/mL, read-out: EC50, TLR2 agonistic activity): 674 nM
- agonist activity compared to TLR2 agonist controls (Pam2CSK4, Pam3CSK4, HKLM) (TLR2 [4]): significantly less agonist potency

Molecule: Pam2CSK4 [reference compound]
- cell viability (SU.86.86 cells): cell viability decreases at higher concentrations past 336 nM
